In ChEMBL document CHEMBL1221352, “Synthesis and biological activity of flavanone derivatives” (Bioorg Med Chem Lett, 2010):

How the values were obtained:
KB = assay: Antitumor activity against human KB cells; format: functional; parameters: concentration or dose not given beside the values
HL-60 = assay: Antitumor activity against human HL60 cells; format: functional; parameters: concentration or dose not given beside the values
[1] = Inhibition of protein tyrosin kinase
HUVEC = assay: Cytoprotectant activity against H2O2-induced injury in HUVEC cells; format: functional, cell-based, Homo sapiens
[2] = Antivegetative activity against rat VSMC; format: functional, cell-based
Bel-7402 = assay: Antitumor activity against human Bel7402 cells; format: functional; parameters: concentration or dose not given beside the values
BGC-823 = assay: Antitumor activity against human BGC823 cells; format: functional; parameters: concentration or dose not given beside the values
[3] = Homo sapiens, HUVEC, read-out: EC50

IC50 [1] | IC50 [2] | IC50 ([1]; read-out: IC50) [µM] | IC50 ([2]; read-out: IC50) [µM] | Compound | Activity (KB) [%] | Activity (HL-60) [%] | EC50 (HUVEC; [3]) [µM] | Activity (Bel-7402) [%] | Activity (BGC-823) [%] | EC50 (HUVEC; huvec)
Not Active | Not Active | – | – | Cc1c(O)c(C)c2c(c1O)C(=O)CC(c1c[nH]c3ccccc13)O2 (centres undefined) | 10.47 | 11.39 | > 10 | 6.45 | 1.67 | –
– | Not Active | > 200 | – | Cc1c(O)c(C)c2c(c1O)C(=O)CC(c1ccc(O)cc1)O2 (centres undefined) | -7.21 | -3.37 | > 20 | -6.53 | -23.52 | –
– | Not Active | 55 | – | Cc1c(O)c(C)c2c(c1O)C(=O)CC(c1ccccc1O)O2 (centres undefined) | 44.54 | -6.47 | > 20 | -1.8 | -6.69 | –
– | Not Active | 51 | – | Cc1c(O)c(C)c2c(c1O)C(=O)CC(c1cccc(O)c1)O2 (centres undefined) | 28.66 | -4.04 | > 20 | -5.48 | -7.6 | –
Not Active | Not Active | – | – | Cc1c(O)c(C)c2c(c1O)C(=O)CC(c1ccc(Cl)cc1)O2 (centres undefined) | 15.89 | 7.65 | > 50 | -7.1 | -22.45 | –
– | – | > 50 | > 20 | Cc1c(O)c(C)c2c(c1O)C(=O)CC(c1ccccc1Cl)O2 (centres undefined) | 28.63 | 2.94 | > 20 | 18.7 | 36.98 | –
Not Active | Not Active | – | – | Cc1c(O)c(C)c2c(c1O)C(=O)CC(c1ccc([N+](=O)[O-])cc1)O2 (centres undefined) | -9.11 | -0.46 | > 20 | 2.05 | -7.41 | –
– | – | > 50 | 9.9 | Cc1c(O)c(C)c2c(c1O)C(=O)CC(c1ccccc1[N+](=O)[O-])O2 (centres undefined) | 29.04 | -6.16 | > 5 | 27.18 | 52 | –
– | – | > 100 | > 100 | COc1ccc(C2CC(=O)c3c(O)c(C)c(O)c(C)c3O2)cc1 (centres undefined) | -11.99 | 8.52 | – | 15.15 | -28.89 | Not Active
– | Not Active | > 100 | – | COc1ccccc1C1CC(=O)c2c(O)c(C)c(O)c(C)c2O1 (centres undefined) | – | – | > 20 | – | – | –
Not Active | Not Active | – | – | COc1ccc(C2CC(=O)c3c(O)c(C)c(O)c(C)c3O2)c(OC)c1 (centres undefined) | – | – | – | – | – | Not Active
– | – | > 200 | > 100 | COc1cc(O)ccc1C1CC(=O)c2c(O)c(C)c(O)c(C)c2O1 (centres undefined) | -18.83 | -1.29 | > 20 | 2.54 | 4.85 | –
Not Active | – | – | 6.7 | Cc1c(O)c(C)c2c(c1O)C(=O)CC(c1ccco1)O2 (centres undefined) | -26.34 | 12.96 | > 20 | 3.27 | -9.68 | –
Not Active | Not Active | – | – | Cc1c(O)c(C)c2c(c1O)C(=O)CC(c1ccsc1)O2 (centres undefined) | 16.07 | 10.82 | > 50 | 11.59 | 50.71 | –
– | Not Active | > 50 | – | Cc1c(O)c(C)c2c(c1O)C(=O)CC(c1ccc(O)c(O)c1)O2 (centres undefined) [CYRTOMINETIN] | 45.3 | -4.85 | > 20 | -7.68 | -19.81 | –
– | – | – | > 100 | Cc1c(O)c(C)c2c(c1O)C(=O)C[C@@H](c1ccccc1)O2 [DEMETHOXYMATTEUCINOL] | 3.64 | – | – | 2.63 | 13.51 | Not Active
– | – | – | 1.48 | COc1ccc2cc1Oc1ccc(cc1)C[C@H]1c3cc(c(OC)cc3CCN1C)Oc1c(OC)c(OC)cc3c1[C@H](C2)N(C)CC3 [FANCHININ] | – | – | – | – | – | –
– | – | 13.6 | – | O=c1c(-c2ccc(O)cc2)coc2cc(O)cc(O)c12 [GENISTEIN] | – | – | – | – | – | –
